Like-named read-outs stand apart in the source and are kept apart here.
Tested on: HCC461
Test: cell viability assay in HCC461, compound alone
Assay type: cell-based
[1] = HCC461, HCC461 cells, compound alone, read-out: IC50 (uM) in cell viability assay in HCC461
[2] = HCC461, HCC461, Tables 6-9, read-out: IC50 (μM) in cell viability assay in HCC461
[3] = HCC461, HCC461, Tables 15-18, read-out: IC50 (uM) in cell viability assay in HCC461
[4] = HCC461 cells, compound alone, read-out: IC50 (uM) in cell viability assay in HCC461

| SMILES | IC50 [1] [µM] | also measured |
| --- | --- | --- |
| CN[C@@H](C)C(=O)N[C@H](C(=O)N1C[C@@H](N2CC(CCCC3CN([C@H]4C[C@@H](C(=O)NC5c6ccccc6-c6ccccc65)N(C(=O)[C@@H](NC(=O)[C@H](C)NC)C(C)(C)C)C4)N=N3)N=N2)C[C@H]1C(=O)NC1c2ccccc2-c2ccccc21)C(C)(C)C (stereo partly shown) [Compound P3-6] | 0.007 |  |
| CN[C@@H](C)C(=O)N[C@H](C(=O)N1C[C@@H](NC(=O)CC[C@@H](NC(=O)[C@H](NC(=O)[C@@H](C)NC)C(C)C)C(=O)N[C@@H](C)C(C)C)C[C@H]1C(=O)N[C@@H]1CCCc2ccccc21)C(C)(C)C [Compound 158] |  | IC50 [2]: > 30 µM |
| CN[C@@H](C)C(=O)N[C@H](C(=O)N[C@@H](CCCCCC[C@H](NC(=O)[C@@H](NC(=O)[C@H](C)NC)C(C)(C)C)C(=O)N[C@@H]1CCCc2ccccc21)C(=O)N[C@@H]1CCCc2ccccc21)C(C)(C)C [Compound P3-65] | 0.002 |  |
| CN[C@@H](C)C(=O)N[C@H](C(=O)N1C[C@@H](NC(=O)/C=C/C(=O)N[C@H]2C[C@@H](C(=O)N[C@H](C)c3ccccc3)N(C(=O)[C@@H](NC(=O)[C@H](C)NC)C(C)(C)C)C2)C[C@H]1C(=O)N[C@H](C)c1ccccc1)C(C)(C)C [Compound P3-75] | 0.057 |  |
| CN[C@@H](C)C(=O)N[C@@H](C(C)C)C(C)N[C@@H](CNC(=O)c1cccc(C(=O)N[C@H]2C[C@@H](C(=O)N[C@@H]3CCCc4ccccc43)N(C(=O)[C@@H](NC(=O)[C@H](C)NC)C(C)(C)C)C2)c1)C(=O)N[C@H](C)C(C)C (stereo partly shown) [Compound 136] |  | IC50 [2]: > 30 µM |
| CN[C@@H](C)C(=O)N[C@@H](CCC(=O)OC)C(=O)N1C[C@@H](NC(=O)c2cccc(C(=O)N[C@H]3C[C@@H](C(=O)N[C@@H]4CCCc5ccccc54)N(C(=O)[C@@H](NC(=O)[C@H](C)NC)C(C)(C)C)C3)c2)CC1C(=O)N[C@H](C)c1ccccc1 (stereo partly shown) [Compound 149] |  | IC50 [2]: 0.072 µM |
| CN[C@@H](C)C(=O)N[C@H](C(=O)N1C[C@@H](NC(=O)CCCCCCC(=O)N[C@H]2C[C@@H](C(=O)N[C@@H]3CCCc4ccccc43)N(C(=O)[C@@H](NC(=O)[C@H](C)NC)C(C)(C)C)C2)C[C@H]1C(=O)N[C@@H]1CCCc2ccccc21)C(C)(C)C [Compound P3-85] | 0.099 |  |
| CN[C@@H](C)C(=O)N[C@H](C(=O)N[C@@H](CCCCNC(=O)c1cccc(C(=O)N[C@H]2CC(C(=O)N[C@@H]3CCc4ccccc4C3)N(C(=O)[C@@H](NC(=O)[C@H](C)NC)C(C)(C)C)C2)c1)C(=O)N[C@@H](C)C(C)C)C(C)(C)C (stereo partly shown) [Compound 161] |  | IC50 (HCC461, Tables 6-9, read-out: IC50 (μM) in cell viability assay in HCC461): 2.5 µM |
| CN[C@@H](C)C(=O)N[C@H](C(=O)N1CCC[C@H]1C(=O)N[C@H](CNC(=O)[C@H]1CC[C@@](C)(C(=O)NC[C@@H](NC(=O)[C@@H]2CCCN2C(=O)[C@@H](NC(=O)[C@H](C)NC)C(C)(C)C)c2ccccc2)C1(C)C)c1ccccc1)C(C)(C)C [Compound P4-15] |  | IC50 [3]: 0.085 µM |
| CN[C@@H](C)C(=O)N[C@@H](CCC(=O)OC)C(=O)N1C[C@@H](NC(=O)c2cccc(C(=O)N[C@H]3C[C@@H](C(=O)N[C@H](C)c4ccccc4)N(C(=O)[C@@H](NC(=O)[C@H](C)NC)C(C)(C)C)C3)c2)CC1C(=O)N[C@H](C)c1ccccc1 (stereo partly shown) [Compound 150] |  | IC50 [2]: 0.121 µM |
| CN[C@@H](C)C(=O)N[C@H](C(=O)N1C[C@@H](NC(=O)c2cc(C(=O)N[C@H]3C[C@@H](C(=O)NC4c5ccccc5-c5ccccc54)N(C(=O)[C@@H](NC(=O)[C@H](C)NC)C(C)(C)C)C3)[nH]n2)C[C@H]1C(=O)NC1c2ccccc2-c2ccccc21)C(C)(C)C [Compound P3-63] | 0.016 |  |
| C[C@@H](C(=O)N[C@@H](CC#CC#CC[C@H](NC(=O)[C@H](C)N(C)C(=O)C(F)(F)F)C(=O)N1CCC[C@H]1C(=O)N[C@@H]1CCCc2ccccc21)C(=O)N1CCC[C@H]1C(=O)N[C@@H]1CCCc2ccccc21)N(C)C(=O)C(F)(F)F [Compound P2-18] |  | IC50 [3]: 0.031 µM |
| CN[C@@H](C)C(=O)N[C@H](C(=O)N1C[C@@H](NC(=O)c2cncc(C(=O)N[C@H]3C[C@@H](C(=O)N[C@@H]4CCCc5ccccc54)N(C(=O)[C@@H](NC(=O)[C@H](C)NC)C(C)(C)C)C3)c2)C[C@H]1C(=O)N[C@@H]1CCCc2ccccc21)C(C)(C)C [Compound P3-11] | 0.003 |  |
| CN[C@@H](C)C(=O)NC(C(=O)N1C[C@@H](NC(=O)c2cc(NC(=O)OCc3ccc([N+](=O)[O-])cc3)cc(C(=O)N[C@H]3C[C@@H](C(=O)N[C@@H]4CCCc5ccccc54)N(C(=O)[C@@H](NC(=O)[C@H](C)NC)C(C)(C)C)C3)c2)CC1C(=O)N[C@@H]1CCCc2ccccc21)C(C)(C)C (stereo partly shown) [Compound 110] |  | IC50 [2]: 0.059 µM |
| CN[C@@H](C)C(=O)N[C@H](C(=O)N1C[C@@H](n2cc(CNC(=O)NCc3cn([C@H]4C[C@@H](C(=O)N[C@@H]5CCCc6ccccc65)N(C(=O)[C@@H](NC(=O)[C@H](C)NC)C(C)(C)C)C4)nn3)nn2)C[C@H]1C(=O)N[C@@H]1CCCc2ccccc21)C(C)(C)C [Compound P3-5] | 0.061 |  |
| CN[C@@H](C)C(=O)N[C@H](C(=O)N1C[C@@H](NC(=O)c2cc(N)cc(C(=O)N[C@H]3C[C@@H](C(=O)N[C@H](C)c4ccccc4)N(C(=O)[C@@H](NC(=O)[C@H](C)NC)C4CCCCC4)C3)c2)C[C@H]1C(=O)N[C@H](C)c1ccccc1)C1CCCCC1 [Compound P3-78] | 0.049 |  |

| SMILES | IC50 [1] [µM] | also measured |
| --- | --- | --- |
| CN[C@@H](C)C(=O)N[C@@H](COCCCCCCOC[C@H](NC(=O)[C@H](C)NC)C(=O)N1CCCC1C(=O)N[C@@H]1CCCc2ccccc21)C(=O)N1CCCC1C(=O)N[C@@H]1CCCc2ccccc21 (stereo partly shown) [Compound P2-20] |  | IC50 [3]: 0.043 µM |
| CN[C@@H](C)C(=O)N[C@H](C(=O)N1C[C@@H](NC(=O)[C@H](O)[C@@H](O)C(=O)N[C@H]2C[C@@H](C(=O)NC3c4ccccc4-c4ccccc43)N(C(=O)[C@@H](NC(=O)[C@H](C)NC)C(C)(C)C)C2)C[C@H]1C(=O)NC1c2ccccc2-c2ccccc21)C(C)(C)C [Compound P3-15] | 0.017 |  |
| CN[C@@H](CO)C(=O)N[C@H](C(=O)N1C[C@@H](NC(=O)c2cccc(C(=O)N[C@H]3C[C@@H](C(=O)N[C@H](C)c4ccccc4)N(C(=O)[C@@H](NC(=O)[C@H](CO)NC)C(C)C)C3)c2)C[C@H]1C(=O)N[C@H](C)c1ccccc1)C(C)C [Compound P3-89] | 0.073 |  |
| CN[C@@H](C)C(=O)N[C@@H](CC#CC#CC[C@H](NC(=O)[C@H](C)NC)C(=O)N1C[C@@H](NS(=O)(=O)c2ccccc2)C[C@H]1C(=O)N[C@@H]1CCCc2ccccc21)C(=O)N1C[C@@H](NS(=O)(=O)c2ccccc2)C[C@H]1C(=O)N[C@@H]1CCCc2ccccc21 [Compound P2-11] |  | IC50 [3]: 0.171 µM |
| CN[C@@H](C)C(=O)N[C@H](C(=O)N1C[C@@H](NC(=O)c2cc(C(=O)N[C@H]3C[C@@H](C(=O)NC(c4ccccc4)c4ccccc4)N(C(=O)[C@@H](NC(=O)[C@H](C)NC)C(C)(C)C)C3)[nH]n2)C[C@H]1C(=O)NC(c1ccccc1)c1ccccc1)C(C)(C)C [Compound P3-64] | 0.008 |  |
| CN[C@@H](C)C(=O)N[C@H](C(=O)N1C[C@@H](NC(=O)c2cc(Br)cc(C(=O)N[C@H]3C[C@@H](C(=O)NC4CCCc5ccccc54)N(C(=O)[C@@H](NC(=O)[C@H](C)NC)C(C)(C)C)C3)c2)CC1C(=O)N[C@@H]1CCCc2ccccc21)C(C)(C)C (stereo partly shown) [Compound P3-29] | 0.016 |  |
| CN[C@@H](C)C(=O)N[C@H](C(=O)N1C[C@@H](NC(=O)c2cc(C(=O)N[C@H]3C[C@@H](C(=O)N[C@H](C)c4ccccc4)N(C(=O)[C@@H](NC(=O)[C@H](C)NC)C(C)C)C3)[nH]n2)C[C@H]1C(=O)N[C@H](C)c1ccccc1)C(C)C [Compound P3-82] | 0.063 |  |
| CN[C@@H](C)C(=O)N[C@H](C(=O)N1C[C@@H](NC(=O)C2CCCC(C(=O)N[C@H]3C[C@@H](C(=O)N[C@H](C)C4CCCCC4)N(C(=O)[C@@H](NC(=O)[C@H](C)NC)C(C)(C)C)C3)C2)C[C@H]1C(=O)N[C@H](C)C1CCCCC1)C(C)(C)C (stereo partly shown) [Compound P3-47] |  | IC50 [4]: 0.022 µM |
| CN[C@@H](C)C(=O)N[C@H](C(=O)N1C[C@@H](NC(=O)c2cccc(C(=O)N[C@H]3C[C@@H](C(=O)NC4CCCC5CCCCC54)N(C(=O)[C@@H](NC(=O)[C@H](C)NC)C(C)(C)C)C3)c2)C[C@H]1C(=O)NC1CCCC2CCCCC21)C(C)(C)C (stereo partly shown) [Compound P3-58] |  | IC50 [4]: 0.211 µM |
| CN[C@@H](C)C(=O)N[C@H](C(=O)N1C[C@@H](NC(=O)c2ccc(-c3ccc(C(=O)N[C@H]4C[C@@H](C(=O)N[C@@H]5CCCc6ccccc65)N(C(=O)[C@@H](NC(=O)[C@H](C)NC)C(C)(C)C)C4)cc3)cc2)C[C@H]1C(=O)N[C@@H]1CCCc2ccccc21)C(C)(C)C [Compound P3-37] | 0.008 |  |
| CN[C@@H](C)C(=O)N[C@H](C(=O)N1C[C@@H](NC(=O)c2cccc(C(=O)N[C@H]3C[C@@H](C(=O)NC4CCCC5CCCCC54)N(C(=O)[C@@H](NC(=O)[C@H](C)NC)C(C)(C)C)C3)c2)C[C@H]1C(=O)NC1CCCC2CCCCC21)C(C)(C)C (stereo partly shown) [Compound P3-60] |  | IC50 [4]: 0.311 µM |
| CN[C@@H](C)C(=O)N[C@@H](CCCCNC(=O)c1cccc(C(=O)N[C@H]2C[C@@H](C(=O)N[C@@H]3CCCc4ccccc43)N(C(=O)[C@@H](NC(=O)[C@H](C)NC)C(C)(C)C)C2)c1)C(=O)N1CCCC[C@H]1C(=O)N[C@@H]1CCCc2ccccc21 [Compound 143] |  | IC50 [2]: 0.027 µM |
| CN[C@@H](C)C(=O)N[C@H](C(=O)N1CCC[C@H]1C(=O)N[C@H](COCc1ccc(COC[C@@H](NC(=O)[C@@H]2CCCN2C(=O)[C@@H](NC(=O)[C@H](C)NC)C(C)(C)C)C2CCCCC2)cc1)C1CCCCC1)C(C)(C)C [Compound P4-17] |  | IC50 [3]: 0.015 µM |
| CN[C@@H](C)C(=O)N[C@H](C(=O)N1C[C@@H](NC(=O)c2cc(N)cc(C(=O)N[C@H]3C[C@@H](C(=O)N[C@H](C)c4ccccc4)N(C(=O)[C@@H](NC(=O)[C@H](C)NC)C(C)C)C3)c2)C[C@H]1C(=O)N[C@H](C)c1ccccc1)C(C)C [Compound P3-81] | 0.058 |  |
| CN[C@@H](C)C(=O)N[C@H](C(=O)N1C[C@@H](NC(=O)c2cccc(C(=O)N[C@H]3C[C@@H](C(=O)N[C@H](C)C4CCCCC4)N(C(=O)[C@@H](NC(=O)[C@H](C)NC)C(C)(C)C)C3)c2)C[C@H]1C(=O)N[C@H](C)C1CCCCC1)C(C)(C)C [Compound P3-43] | 0.057 |  |

— US20130344026A1, “Dimeric Smac Mimetics” (priority 2009, published 2013)
